# Reference: US11053242B2, “[9,10-dimethoxy-3-(2-methylpropyl)-1H,2H,3H,4H,6H,7H,11BH-pyrido-[2,1-a]isoquinolin-2-yl]methanol and compounds, compositions and methods relating thereto” (Neurocrine Biosciences, Inc., priority 2015, dated 2021)
# pKi: −log10 of the molar value.
# Columns and labels:
# [1] = In vitro human intestinal S9 hydrolysis assay (formation of compound 1-1); conditions: human intestinal S9, 1 uM, 37° C., up to 60 minutes
# Experimental: Compounds (1 uM) were incubated with pooled intestinal S9 subcellular preparations (0.5 mg/mL total protein) from SD rats and humans without the addition of protease inhibitor phenylmethylsulfonylflouride. Incubations were carried out in a potassium phosphate buffer (50 mM). All concentrations were relative to the final incubation volume of 125 uL. Incubations were conducted at 37° C. for 0, 5, 10, 20, 40 and 60 minutes in a water bath and terminated by rapid mixing with 150 uL of ice-cold acetonitrile containing 1% formic acid. Internal standard was added and proteins were precipitated and removed by centrifugation prior to LC/MS analysis.
# [2] = molecular target: VMAT2 (human platelet homogenate) (Homo sapiens (Human), UniProt Q05940); experiment: Human VMAT2 Ki, slightly modified competition binding procedure (Table 11); conditions: 10 nM 3H-dihydrotetrabenazine;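 further: competition binding with 90 min incubation at 25 °C, after which filter-retained radioligand was measured by scintillation counting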
# VMAT2 (human platelet homogenate), sequence (Q05940 whole entry): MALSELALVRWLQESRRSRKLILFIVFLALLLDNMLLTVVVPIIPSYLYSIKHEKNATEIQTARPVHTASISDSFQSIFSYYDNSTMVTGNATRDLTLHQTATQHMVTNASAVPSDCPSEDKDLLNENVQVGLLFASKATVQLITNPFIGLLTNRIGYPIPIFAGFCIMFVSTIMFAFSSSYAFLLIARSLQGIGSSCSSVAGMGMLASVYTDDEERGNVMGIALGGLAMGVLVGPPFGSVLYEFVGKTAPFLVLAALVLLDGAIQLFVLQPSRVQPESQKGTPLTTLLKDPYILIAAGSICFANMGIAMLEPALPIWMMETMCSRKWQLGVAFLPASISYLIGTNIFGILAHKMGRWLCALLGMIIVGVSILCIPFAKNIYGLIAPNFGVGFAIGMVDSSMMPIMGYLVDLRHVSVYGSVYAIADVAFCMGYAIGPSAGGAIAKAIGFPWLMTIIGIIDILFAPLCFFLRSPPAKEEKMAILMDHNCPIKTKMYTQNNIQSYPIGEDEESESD
# Experimental: Following incubation at 25° C. for 90 minutes, bound radioligand was collected by rapid filtration onto GF/B glass fiber filters using a Unifilter-96 Harvester (PerkinElmer). Filter plates were pre-treated with 0.1% polyethylenimine and allowed to dry overnight, and following harvesting the filter plates were washed with 800 d VMAT2 binding buffer. Bound radioligand was quantified by scintillation counting using a Topcount NXT (PerkinElmer).
Compound,S9 Assay (ability to form compound 1-1) [1],pKi [2]
"COc1cc2c(cc1OC)[C@H]1C[C@@H](COC(=O)C3CCNCC3)[C@H](CC(C)C)CN1CC2 [Compound 4-1, [(2R,3S,11bR)-9,10-dimethoxy-3-(2-methylpropyl)-1H,2H,3H,4H,6H,7H,11bH-pyrido[2,1-a]isoquinolin-2-yl]methyl piperidine-4-carboxylate]",++,> 8.00
COc1cc2c(cc1OC)[C@H]1C[C@@H](COC(=O)C(C)(C)CC(=O)O)[C@H](CC(C)C)CN1CC2 [Compound 3-11],++,< 6.30
"COc1cc2c(cc1OC)[C@H]1C[C@@H](COC(=O)NC3C4CCC(C4)C3C(=O)O)[C@H](CC(C)C)CN1CC2 (stereo partly drawn) [Compound 5-40, 3-[({[(2R,3S,11bR)-9,10-dimethoxy-3-(2-methylpropyl)-1H,2H,3H,4H,6H,7H,11bH-pyrido[2,l-a]isoquinolin-2-yl]methoxy}carbonyl)amino]bicyclo[2.2.1]heptane-2-carboxylic acid]",+,6.30 to 8.00
"COc1cc2c(cc1OC)[C@H]1C[C@@H](COC(=O)CC(C)(C)CC(=O)O)[C@H](CC(C)C)CN1CC2 [Compound 3-1, 5-{[(2R,3S,11bR)-9,10-dimethoxy-3-(2-methylpropyl)-1H,2H,3H,4H,6H,7H,11bH-pyrido[2,1-a]isoquinolin-2-yl]methoxy}-3,3-dimethyl-5-oxopentanoic acid]",+,< 6.30
COc1cc2c(cc1OC)[C@H]1C[C@@H](COC(=O)CCCCC(=O)O)[C@H](CC(C)C)CN1CC2 [Compound 3-10],+++,< 6.30
COc1cc2c(cc1OC)[C@H]1C[C@@H](COC(=O)CCC(C)(C)C(=O)O)[C@H](CC(C)C)CN1CC2 [Compound 3-12],+++,6.30 to 8.00
"COc1cc2c(cc1OC)[C@H]1C[C@@H](COC(=O)CCCC(=O)O)[C@H](CC(C)C)CN1CC2 [Compound 3-8, 5-{[(2R,3S,11bR)-9,10-dimethoxy-3-(2-methylpropyl)-1H,2H,3H,4H,6H,7H,11 bH-pyrido[2,1 a]isoquinolin-2-yl]methoxy}-5-oxopentanoic acid]",+++,6.30 to 8.00
"COc1cc2c(cc1OC)[C@H]1C[C@@H](COC(=O)[C@H]3CCCNC3)[C@H](CC(C)C)CN1CC2 [Compound 4-13, [(2R,3S,11bR)-9,10-dimethoxy-3-(2-methylpropyl)-1H,2H,3H,4H,6H,7H,11bH-pyrido[2,1-a]isoquinolin-2-yl]methyl (3S)-piperidine-3-carboxylate]",+++,> 8.00
"COc1cc2c(cc1OC)[C@H]1C[C@@H](COC(=O)N3C[C@@H]4C[C@H]3CN4)[C@H](CC(C)C)CN1CC2 [Compound 6-10, [(2R,3S,11bR)-9,10-dimethoxy-3-(2-methylpropyl)-1H,2H,3H,4H,6H,7H,11bH-pyrido[2,1-a]isoquinolin-2-yI]methyl (1S,4S)-2,5-diazabicyclo[2.2.1]heptane-2-carboxylate]",+,> 8.00
"COc1cc2c(cc1OC)[C@H]1C[C@@H](COC(=O)[C@@H]3CCCNC3)[C@H](CC(C)C)CN1CC2 [Compound 4-29, [(2R,3S,11bR)-9,10-dimethoxy-3-(2-methylpropyl)-1H,2H,3H,4H,6H,7H,11bH-pyrido[2,1-a]isoquinolin-2-yl]methyl (3R)-piperidine-3-carboxylate]",+++,> 8.00
"COc1cc2c(cc1OC)[C@H]1C[C@@H](COC(=O)C[C@H]3CCNC3)[C@H](CC(C)C)CN1CC2 [Compound 4-38, [(2R,3S,11bR)-9,10-dimethoxy-3-(2-methylpropyl)-1H,2H,3H,4H,6H,7H,11bH-pyrido[2,1-a]isoquinolin-2-yl]methyl 2-[(3R)-pyrrolidin-3-yl]acetate]",+,> 8.00
"COc1cc2c(cc1OC)[C@H]1C[C@@H](COC(=O)[C@@H]3CCNC3)[C@H](CC(C)C)CN1CC2 [Compound 4-26, [(2R,3S,11bR)-9,10-dimethoxy-3-(2-methylpropyl)-1H,2H,3H,4H,6H,7H,11bH-pyrido[2,1-a]isoquinolin-2-yl]methyl (3R)-pyrrolidine-3-carboxylate]",++,> 8.00
"COc1cc2c(cc1OC)[C@H]1C[C@@H](COC(=O)CC(C)CC(=O)O)[C@H](CC(C)C)CN1CC2 (stereo partly drawn) [Compound 3-3, 5-{[(2R,3S,11bR)-9,10-dimethoxy-3-(2-methylpropyl)-1H,2H,3H,4H,6H,7H,11bH-pyrido[2,1-a]isoquinolin-2-yl]methoxy}-3-methyl-5-oxopentanoic acid]",+++,6.30 to 8.00

# The remaining lines, values ahead:
S9 Assay (ability to form compound 1-1) [1],pKi [2],Compound
+,< 6.30,COc1cc2c(cc1OC)[C@H]1C[C@@H](COC(=O)NCC(=O)O)[C@H](CC(C)C)CN1CC2 [Compound 5-30]
+++,6.30 to 8.00,"COc1cc2c(cc1OC)[C@H]1C[C@@H](COC(=O)NC3(C(=O)O)CCCC3)[C@H](CC(C)C)CN1CC2 [Compound 5-39, 1-[({[(2R,3S,11bR)-9,10-dimethoxy-3-(2-methylpropyl)-1H,2H,3H,4H,6H,7H,11bH-pyrido[2,1-a]isoquinolin-2-yl]methoxy}carbonyl)amino]cyclopentane-1-carboxylic acid]"
+,< 6.30,"COc1cc2c(cc1OC)[C@H]1C[C@@H](COC(=O)N3CCC[C@@H](C(=O)O)C3)[C@H](CC(C)C)CN1CC2 [Compound 5-54, (3R)-1-({[(2R,3S,11bR)-9,10-dimethoxy-3-(2-methylpropyl)-1H,2H,3H,4H,6H,7H,11bH-pyrido[2,1-a]isoquinolin-2-yl]methoxy}carbonyl)piperidine-3-carboxylic acid]"
+,> 8.00,"COc1cc2c(cc1OC)[C@H]1C[C@@H](COC(=O)N3CCNC[C@@H]3CO)[C@H](CC(C)C)CN1CC2 [Compound 6-7, [(2R,3S,11bR)-9,10-dimethoxy-3-(2-methylpropyl)-1H,2H,3H,4H,6H,7H,11bH-pyrido[2,1-a]isoquinolin-2-yl]methyl (2R)-2-(hydroxymethyl)piperazine-1-carboxylate]"
+,6.30 to 8.00,"COc1cc2c(cc1OC)[C@H]1C[C@@H](COC(=O)NCC[C@H](O)C(=O)O)[C@H](CC(C)C)CN1CC2 [Compound 5-56, (2S)-4-[({[(2R,3S,11bR)-9,10-dimethoxy-3-(2-methylpropyl)-1H,2H,3H,4H,6H,7H,11bH-pyrido[2,1-a]isoquinolin-2-yl]methoxy}carbonyl)amino]-2-hydroxybutanoic acid]"
+,< 6.30,"COc1cc2c(cc1OC)[C@H]1C[C@@H](COC(=O)NCC(C)C(=O)O)[C@H](CC(C)C)CN1CC2 (stereo partly drawn) [Compound 5-57, 3-[({[(2R,3S,11bR)-9,10-dimethoxy-3-(2-methylpropyl)-1H,2H,3H,4H,6H,7H,11bH-pyrido[2,1-a]isoquinolin-2-yl]methoxy}carbonyl)amino]-2-methyIpropanoic acid]"
+,< 6.30,"COc1cc2c(cc1OC)[C@H]1C[C@@H](COC(=O)N3CCOC(CC(=O)O)C3)[C@H](CC(C)C)CN1CC2 (stereo partly drawn) [Compound 5-6, 2-[4-({[(2R,3S,11bR)-9,10-dimethoxy-3-(2-methylpropyl)-1H,2H,3H,4H,6H,7H,11bH-pyrido[2,1-a]isoquinolin-2-yl]methoxy}carbonyl)morpholin-2-yl]acetic acid]"
+,> 8.00,"COc1cc2c(cc1OC)[C@H]1C[C@@H](COC(=O)N3C[C@@H](C)N[C@@H](C)C3)[C@H](CC(C)C)CN1CC2 [Compound 6-6, [(2R,3S,11bR)-9,10-dimethoxy-3-(2-methylpropyl)-1H,2H,3H,4H,6H,7H,11bH-pyrido[2,1-a]isoquinolin-2-yl]methyl (3R,5S)-3,5-dimethylpiperazine-1-carboxylate]"
++,> 8.00,"COc1cc2c(cc1OC)[C@H]1C[C@@H](COC(=O)N(C)C(C(=O)O)C(C)C)[C@H](CC(C)C)CN1CC2 (stereo partly drawn) [Compound 5-32, 2-[({[(2R,3S,11bR)-9,10-dimethoxy-3-(2-methylpropyl)-1H,2H,3H,4H,6H,7H,11bH-pyrido[2,1-a]isoquinolin-2-yl]methoxy}carbonyl)(methyl)amino]-3-methylbutanoic acid]"
++,6.30 to 8.00,"COc1cc2c(cc1OC)[C@H]1C[C@@H](COC(=O)NCC(O)C(=O)O)[C@H](CC(C)C)CN1CC2 (stereo partly drawn) [Compound 5-11, 3-[({[(2R,3S,11bR)-9,10-dimethoxy-3-(2-methylpropyl)-1H,2H,3H,4H,6H,7H,11bH-pyrido[2,1-a]isoquinolin-2-yl]methoxy}carbonyl)amino]-2-hydroxypropanoic acid]"
+,6.30 to 8.00,"COc1cc2c(cc1OC)[C@H]1C[C@@H](COC(=O)NC3(C(=O)O)CC3)[C@H](CC(C)C)CN1CC2 [Compound 5-5, 1-[({[(2R,3S,11bR)-9,10-dimethoxy-3-(2-methylpropyl)-1H,2H,3H,4H,6H,7H,11bH-pyrido[2,1-a]isoquinolin-2-yl]methoxy}carbonyl)amino]cyclopropane-1-carboxylic acid]"
+,> 8.00,"COc1cc2c(cc1OC)[C@H]1C[C@@H](COC(=O)N3CCNCC3)[C@H](CC(C)C)CN1CC2 [Compound 6-1, [(2R,3S,11bR)-9,10-dimethoxy-3-(2-methylpropyl)-1H,2H,3H,4H,6H,7H,11bH-pyrido[2,1-a]isoquinolin-2-yl]methyl piperazine-1-carboxylate]"
+,< 6.30,"COc1cc2c(cc1OC)[C@H]1C[C@@H](COC(=O)N[C@H]3[C@@H](C(=O)O)[C@H]4C=C[C@@H]3C4)[C@H](CC(C)C)CN1CC2 [Compound 5-9, (1R,2S,3R,4S)-3-[({[(2R,3S,11bR)-9,10-dimethoxy-3-(2-methylpropyl)-1H,2H,3H,4H,6H,7H,11bH-pyrido[2,1-a]isoquinolin-2-yl]methoxy}carbonyl)amino]bicyclo[2.2.1]hept-5-ene-2-carboxylic acid]"
